For data set [1] the following is noted: on the palate; reb-M used alone or substantially alone, compared to established rebaudioside sweeteners including reb-A; cited from earlier work.
For data set [2] the following is noted: relative to sucrose, baseline 1.0; cited from earlier work.
A further data set has as its system microbial growth. The conditions noted are these: cited from earlier work.
The nature of data set [3]: Solubility and retention of reb-M in 1,3-propanediol after heating and cooling. In kind it is physicochemical. How it is done:
The solvent or liquid base for the sweetener composition may comprise 1,3-propanediol and optionally one or more additional solvents. […] (175° F.) and cooled to room temperature. […] (36° F.).

For data set [4] the following is noted: room temperature; cited from earlier work.

In brackets after ≈: the same amount, converted by molar mass.

Turning to `C=C1C[C@@]23CC[C@H]4[C@@](C)(CCC[C@@]4(C)C(=O)O[C@@H]4O[C@H](CO)[C@@H](O)[C@H](O)[C@H]4O)[C@@H]2CC[C@]1(O[C@@H]1O[C@H](CO)[C@@H](O)[C@H](O[C@@H]2O[C@H](CO)[C@@H](O)[C@H](O)[C@H]2O)[C@H]1O[C@@H]1O[C@H](CO)[C@@H](O)[C@H](O)[C@H]1O)C3` [reb-A, Rebaudioside A], the bitter aftertaste entry in data set [1] is reported as “bitter aftertaste”.
With `O=C(CO)[C@@H](O)[C@H](O)[C@H](O)CO` [fructose], the sweetness index entry in data set [2] was “approximately 1.7”.
As for 1,3-propanediol, the “minimum inhibitory concentration (MIC) compared with other solvents such as glycerin” value with microbial growth is listed as “lower”.
Take `OC[C@H]1O[C@@](CO)(O[C@H]2O[C@H](CO)[C@@H](O)[C@H](O)[C@H]2O)[C@@H](O)[C@@H]1O` [sucrose]: the sweetness index in data set [2] was 1.0.
As usually defined, the solubility is the concentration that dissolves in the medium under given conditions. Regarding `C=C1C[C@@]23CC[C@H]4[C@@](C)(CCC[C@@]4(C)C(=O)O[C@@H]4O[C@H](CO)[C@@H](O)[C@H](O[C@@H]5O[C@H](CO)[C@@H](O)[C@H](O)[C@H]5O)[C@H]4O[C@@H]4O[C@H](CO)[C@@H](O)[C@H](O)[C@H]4O)[C@@H]2CC[C@]1(O[C@@H]1O[C@H](CO)[C@@H](O)[C@H](O[C@@H]2O[C@H](CO)[C@@H](O)[C@H](O)[C@H]2O)[C@H]1O[C@@H]1O[C@H](CO)[C@@H](O)[C@H](O)[C@H]1O)C3` [reb-M, rebaudioside-M], the solubility in data set [3] (1,3-propanediol, organic solvent or mixture, thermodynamic from solid, solvent heated in excess of 80° C. (175° F.) and cooled to room temperature) was roughly 795 mg/mL (≈ 616 mM). Besides, the entries for the “retention in solution on cooling” value in data set [3] (heated 1,3-propanediol solution cooled back to room temperature) and in data set [3] (heated 1,3-propanediol solution cooled to approximately 2° C. (36° F.)) were “retained in the solution” and “retained in solution”, respectively. In data set [4], the solubility in water entry was “up to 0.1 g per 100 ml water”. The bitter aftertaste entry in data set [1] is on record as “reduced bitterness of aftertaste”.

The record behind these values is patent US11825868B2, “Sweetener composition” (Hapy Sweet Bee Ltd, priority 2019, dated 2023).
